Assay results as given in patent US20240374612A1, “IMIDAZOBENZO[…] TREATMENT OF COGNITIVE AND MOOD SYMPTOMS” (UWM Research Foundation, Inc., priority 2021, published 2024).
“Also recorded” adds a separate entry of the source.

What was measured:
[1] = test system: mice (anxiety like behaviors); experiment: Elevated plus maze (EPM); format: in vivo; details: vs vehicle
Procedure: The EPM is commonly used in preclinical rodent models to assess anxiety-like behaviors. Briefly, mice are placed in a cross-shaped maze raised at 55 cm from the floor, with 2 open arms facing each other, and 2 closed arms facing each other. During testing, mice are individually placed in the center of the maze facing an open arm and allowed to explore for 10 minutes. Throughout testing, the exploration of each mouse is recorded using a digital camera mounted on the ceiling. After 10 minutes of exploration, the camera is stopped and the mouse is removed from the maze and returned to its home cage. The videos are analyzed using Ethovision XT14 software. Specific parameters considered are: % time spent in the open arms, calculated using ([(total time spent in open arms)/(total time spent in open arms+total time spent in closed arms)]*100) and the number of open arm entries.

[2] = test system: C57/Bl6 mice subjected to chronic restraint stress (working memory deficit); experiment: Y-maze alternation task after chronic restraint stress (CRS); format: in vivo; details: acute, 30 min before testing, vs CRS vehicle
Procedure: Young Animals and chronic stress procedure: C57/Bl6 mice, males and females at 8 weeks old and are kept in normal housing conditions (12 h light ON cycle starting at 7 am/water and food ad libitum) for one week. During this week, animals are single housed and handled to reduce the anxiety-like response toward the experimenter. To induce a working memory deficit, mice are subjected to a chronic restraint stress protocol (CRS). They are placed in a 50 mL Falcon® tube, twice a day, for 1 hour during their diurnal cycle. The time of occurrence of the stress is randomized every day to avoid predictability. CRS is not applied on testing days. Y-maze test occurs 15 hours minimum after the last stressor.
Protocol: Mice are first habituated to the Y-maze apparatus and distal cues during 2 consecutive days over a 10 min free exploration session (one session per day). The next day, animals perform a training session consisting in seven successive trials separated by a 30 s inter-trial interval (ITI); during this training session, mice are familiarized with the experimental procedure (opening and closing of the doors and confinement into the goal arms). For each trial, mice remain in the start-box for a 30 s ITI. Then, the door is opened and the mouse is allowed to enter freely one of the two goal arms; the chosen arm is closed and the choice is recorded. After a 30 s confinement period into the chosen arm, the mouse is removed and brought back to the start-box for a second trial identical to the first one and this procedure is repeated over the series of trials.
The same general procedure used in the training session is implemented 24 h later, except that the ITI was lengthened to 90 s. For this experiment, animals are acutely injected i.p. with vehicle or drug, 30 minutes before the beginning of the test. To dissociate memory deficits from an eventual progressive loss of motivation to alternate over the series, an 8th trial is added to the series which is separated from the 7th trial by a shorter ITI (5 s). All animals failing to alternate at the 8th trial are excluded. The mean alternation rate is calculated and is expressed in percentage (number of alternation done by the animal/total number of alternation possible×100)±SEM. The percentage of alternation during the entire task is considered as an index of working memory performance (50% of being a random alternation rate). Factorial ANOVA is applied to the data to reveal differences between groups. If the ANOVA is significant for group effect (p<0.05), Scheffe post-hoc analysis are conducted to identify which groups are different from each other.
Drug preparation and administration: All drugs are diluted in a vehicle solution containing 85% H2O, 14% propylene glycol (Sigma Aldrich) and 1% Tween 80 (Sigma Aldrich). Working solutions are prepared at a concentration of 10 mg/mL and administered i.p. adjusted to the body weight of each animal. Doses used are either 1, 5, 10 or 20 mg/kg. For all Y maze experiments, animals are acutely injected i.p. with vehicle or drug, 30 minutes before the beginning of the test.

[3] = 3 mg/kg i.p., 30 min before testing

| Structure (SMILES) | reversal of CRS-induced reduction of alternation rate (Y-maze) ([2]; 3 mg/kg i.p.) | reversal of CRS-induced reduction of alternation rate (Y-maze) ([2]; 10 mg/kg i.p.) | reversal of CRS-induced reduction of alternation rate (Y-maze) ([2]; 30 mg/kg i.p.) | other results |
| --- | --- | --- | --- | --- |
| C#Cc1ccc2c(c1)C(c1ccccc1Cl)=N[C@@H](C)c1c(C(=O)NC)ncn1-2 [FR-III-17, (S)-6-(2-chlorophenyl)-8-ethynyl-N,4-dimethyl-4H-benzo[f]imidazo[1,5-a][1,4]diazepine-3-carboxamide] | significantly reversed |  |  | % distance traveled in the open arms (EPM) [1, 3]: significantly increase; % entries in the open arms (EPM) [1, 3]: significantly increase; % time in the open arms (EPM) [1, 3]: significantly increase; reversal of CRS-induced reduction of alternation rate (Y-maze) ([2]; 0.3 mg/kg i.p.): significantly reversed; reversal of CRS-induced reduction of alternation rate (Y-maze) ([2]; 1 mg/kg i.p.): significantly reversed |
| C#Cc1ccc2c(c1)C(c1ccccc1Cl)=N[C@@H](C)c1c(-c3nc(C)no3)ncn1-2 [FR-PM-III-57S, (S)-5-(6-(2-chlorophenyl)-8-ethynyl-4-methyl-4H-benzo[f]imidazo[1,5-a][1,4]diazepin-3-yl)-3-methyl-1,2,4-oxadiazole] |  | significantly reversed; also recorded: significantly improved alternation rate | trend level effect |  |
| Cc1noc(-c2ncn3c2[C@@H](C)N=C(c2ccccc2F)c2cc(Br)ccc2-3)n1 [GL-III-60, (R)-5-(8-Bromo-6˜(2-fluorophenyl)-4-methyl-4H-benzo[f]imidazo[1,5-a][1,4]diazepin-3-yl)-3-methyl-1,2,4-oxadiazole] |  | reversed | reversed |  |
| CCc1noc(-c2ncn3c2[C@@H](C)N=C(c2ccccc2F)c2cc(C4CC4)ccc2-3)n1 [GL-IV-03, (R)-5-(8-Cyclopropyl-6-(2-fluorophenyl)-4-methyl-4H-benzo[f]imidazo[1,5-a][1,4]diazepin-3-yl)-3-ethyl-1,2,4-oxadiazole] | reversed |  | reversed |  |
| C#Cc1ccc2c(c1)C(c1ccccn1)=N[C@@H](C)c1c(C(=O)NC)ncn1-2 [MYM-III-29, (S)-8-ethynyl-N,4-dimethyl-6-(pyridin-2-yl)-4H-benzo[f]imidazo[1,5-a][1,4]diazepine-3-carboxamide] | no significant difference between groups | reversed (p<0.05) |  | distance travelled in the open arms (EPM) ([1]; 10 mg/kg i.p.): increasing distance travelled in the open arms |
| C[C@H]1N=C(c2ccccc2F)c2cc(-c3ccccc3)ccc2-n2cnc(C(=O)N(C)C)c21 [MYM-III-41, (R)-6-(2-fluorophenyl)-N,N,4-trimethyl-8-phenyl-4H-benzo[f]imidazo[1,5-a][1,4]diazepine-3-carboxamide] |  | reversed |  | reversal of CRS-induced reduction of alternation rate (Y-maze) ([2]; 5 mg/kg i.p.): reversed |
| CCc1noc(-c2ncn3c2CN=C(c2ccccc2F)c2cc(C4CC4)ccc2-3)n1 [MYM-III-43, 5-(8-cyclopropyl-6-(2-fluorophenyl)-4H-benzo[f]imidazo[1,5-a][1,4]diazepin-3-yl)-3-ethyl-1,2,4-oxadiazole] | reversed | reversed | reversed |  |
| CC(C)c1noc(-c2ncn3c2[C@@H](C)N=C(c2ccccc2F)c2cc(Cl)ccc2-3)n1 [MYM-IV-46, (R)-5-(8-chloro-6-(2-fluorophenyl)-4-methyl-4H-benzo[f]imidazo[1,5-a][1,4]diazepin-3-yl)-3-isopropyl-1,2,4-oxadiazole] | no significant effect | significantly reversed; also recorded: improved alternation rate | trend level effect |  |
| C[C@H]1N=C(c2ccccc2F)c2cc(Cl)ccc2-n2cnc(-c3nc(C4CC4)no3)c21 [MYM-IV-47, (R)-5-(8-chloro-6-(2-fluorophenyl)-4-methyl-4H-benzo[f]imidazo[1,5-a][1,4]diazepin-3-yl)-3-cyclopropyl-1,2,4-oxadiazole] | no significant effect | significantly reversed | significantly reversed |  |
| C#Cc1ccc2c(c1)C(c1ccccc1F)=N[C@H](C)c1c(-c3nc(C4CC4)no3)ncn1-2 [MYM-V-28, (R)-3-cyclopropyl-5-(8-ethynyl-6-(2-fluorophenyl)-4-methyl-4H-benzo[f]imidazo [1,5-a][1,4]diazepin-3-yl)-1,2,4-oxadiazole] |  | significantly reversed; also recorded: significantly improved alternation rate | significantly reversed; also recorded: significantly improved alternation rate |  |
| C#Cc1ccc2c(c1)C(c1ccccc1Cl)=N[C@H](C)c1c(C(=O)N(C)C)ncn1-2 [PM-II-26, (R)-6-(2-chlorophenyl)-8-ethynyl-N,N,4-trimethyl-4H-benzo[f]imidazo[1,5-a][1,4]diazepine-3-carboxamide] |  | reversed (p<0.001) | a trend was observed; also recorded: reversed (trend: p=0.1) |  |
| C#Cc1ccc2c(c1)C(c1ccccc1Cl)=N[C@H](C)c1c(-c3nc(CC)no3)ncn1-2 [PM-II-84E, (R)-5-(6-(2-chlorophenyl)-8-ethynyl-4-methyl-4H-benzo[f]imidazo[1,5-a][1,4]diazepin-3-yl)-3-ethyl-1,2,4-oxadiazole] |  |  | reversed | time spent in the open arms (EPM) ([1]; 10 mg/kg i.p., 30 min before testing): significant effect; also recorded: increasing time spent in the open arms; distance travelled in the open arms (EPM) ([1]; 10 mg/kg i.p.): trend level effect |
| C#Cc1ccc2c(c1)C(c1ccccc1Cl)=N[C@H](C)c1c(-c3nc(C)no3)ncn1-2 [PM-III-57R, (R)-5-(6-(2-chlorophenyl)-8-ethynyl-4-methyl-4H-benzo[f]imidazo[1,5-a][1,4]diazepin-3-yl)-3-methyl-1,2,4-oxadiazole] |  | significantly reversed; also recorded: significantly improved alternation rate |  |  |
